Reference: patent US5905187A (priority 1997, dated 1999)
Entries after “also recorded” stand apart in the source; their conditions may differ. No end group written: not given here.

How the values were obtained:
Type in all cases: cell-based
Fusarium graminearum = test system: Fusarium graminearum
Sclerotinia sclerotiorum = test system: Sclerotinia sclerotiorum
Sclerotinia trifoliorum = test system: Sclerotinia trifoliorum
Fusarium moniliforme = test system: Fusarium moniliforme
Aspergillus flavus = test system: Aspergillus flavus
Alternaria longipes = test system: Alternaria longipes
plant pathogenic fungi = test system: plant pathogenic fungi

RSGRGECRRQCLRRHEGQPWETQECMRRCRRRGG (cysteine pairing not given here) [CMIII]
inhibition of Fusarium graminearum (Fusarium graminearum; at a concentration of 112 μg/mL): inhibitory activity
concentration down to which Fusarium graminearum was noticeably inhibited (Fusarium graminearum; other studies): 3.8 µM
concentrations at which inhibition of S. sclerotiorum was not observed (Sclerotinia sclerotiorum): below 30.4 micromolar
inhibition of Sclerotinia isolates (S. sclerotiorum) (Sclerotinia sclerotiorum): inhibited strongly
inhibition of Sclerotinia sclerotiorum (Sclerotinia sclerotiorum): inhibitory activity
concentrations at which inhibition of S. trifoliorum was not observed (Sclerotinia trifoliorum): below 15.2 micromolar
inhibition of Sclerotinia isolates (S. trifoliorum) (Sclerotinia trifoliorum): inhibited strongly
inhibition of Sclerotinia trifoliorum (Sclerotinia trifoliorum): inhibitory activity
concentration down to which Fusarium moniliforme was noticeably inhibited (Fusarium moniliforme): 3.8 µM
inhibition of Fusarium moniliforme (Fusarium moniliforme): slightly inhibited; also recorded: not completely inhibited
inhibition of Aspergillus flavus (Aspergillus flavus): slightly inhibited; also recorded: slight inhibition
effect on A. longipes (Alternaria longipes; at 3 μM, yet another study): not affected
concentration showing noticeable inhibition of Alternaria longipes (Alternaria longipes; other studies, most sensitive of the fungi): 1.9 µM
CMIII activity in the presence of plant cell extracts (plant pathogenic fungi): reduced substantially
